Experimental data reported in patent publication US9217743B2, “Screening method utilizing thalidomide-targeting factor” (Tokyo Institute of Technology, priority 2009, dated 2015).
“Also recorded” adds a separate entry of the source.

Legend:
[1] = test system: multiple myeloma cell Kms12; experiment: Growth inhibition of multiple myeloma cells, Cell Count-Reagent SF; assay type: cell-based, human; details: 48 hours, 37° C., 5% CO2
Description: KMS-12 cells were incubated with thalidomide or 5HPP-33 (100 μM) for 48 hours at 37° C. in 5% CO2. For measurement of the number of the living cells, Cell Count-Reagent SF (Nacalai Tesque, Inc.) was added to culture media for 2 hours at the end of the 48 hours culture. The absorbance at 450 nm was measured.
Multiple myeloma cell Kms12 were cultured in RPMI Medium 1640 containing 10% FBS. For treatment with drugs, the medium was adjusted to contain 2×10^5 Kms12 cells/ml and dispensed in 2 ml Eppendorf tubes in 2 ml aliquots. As the stock solution, thalidomide or 5HPP-33 were dissolved in dimethylsulfoxide (DMSO) at concentration of 100 mM and […] respectively. The stock solution was added to the cell suspension at 2 μl/2 ml, followed by gentle and thorough inversion mixing. Cell mixture was dispensed in a 96 well plate at 100 μl/well and cultured at 37° C. and 5% CO2 for 48 hours. For measurement of the number of the living cells, Cell Count-Reagent SF (Nacalai Tesque, Inc.) was added to culture media and incubated for 2 hours. The absorbance at 450 nm, which is correlate to the number, were measured by GloMax-Multi+ Detection System (Promega KK) For preparation of a calibration curve, 1×10^6, 3×10^5 and 1×10^5 Kms12 cells/ml were used. Defining the number of cells treated with the solvent as 100, the number of cells treated with the drugs were expressed as relative values.

[2] = target: CRBN (Homo sapiens, UniProt Q96SW2); experiment: Elution of CRBN from thalidomide-immobilized beads by test compound, Western blotting; details: for CRBN eluted from thalidomide-immobilized beads by the compound: 293T cell extracts, buffer containing 0.1 to 1 mM compound, one hour, Western blotting; for bindability with CRBN: concluded from elution from thalidomide-immobilized beads
Description: Firstly, thalidomide-immobilized FG beads are prepared. The immobilized beads are mixed and incubated with extracts of CRBN-expressing cells or recombinant proteins for one hour or longer in a rotator at 5 rpm and 4° C. Then, after the beads are washed with a buffer, for example, a buffer containing a thalidomide derivative as a test substance is passed through the beads to see whether CRBN is eluted. Examples of a detection method include Western blotting, dot blotting, CBB staining, and silver staining.

[3] = test system: zebrafish embryos; experiment: Zebrafish embryo development, pectoral fins and otic vesicles; assay type: in vivo, zebrafish (Danio rerio); details: for fin and otic vesicle development: AMO injected into one cell stage embryos
[4] = test system: shh; experiment: Whole-mount in situ hybridization of zebrafish fin buds; assay type: in vivo; details: AMO injected embryos
Source text: (§1) To obtain a clue to the pathway(s) downstream of CRBN and thalidomide, the present inventors analyzed well-known key molecules in fin development. Sonic hedgehog (Shh) is expressed in the zone of polarizing activity (ZPA) and is responsible for anteroposterior patterning of the limb and fin (Cited Literature 27), whereas Fgf8 is expressed in the apical ectodermal ridge (AER) of the limb and fin and is necessary for outgrowth of the limb and fin along the proximodistal axis. […] Thus, an inhibitor of FGF8 production is a possible downstream target of thalidomide and the CRBN-containing E3 complex.
(§2) This assay was carried out in accordance with Cited Literature 41. Antisense probe for zcrbn mRNA was directed against the 5′-coding region of 513 bp. Antisense probe for zcul4a was directed against the 3′ untranslated region (3′ UTR) of 590 bp. Probes for shh and fgf8 were kindly provided by Dr. Krauss and Dr. Thisse, respectively. To increase permeability of probes, fixed embryos were incubated with PBS containing 0.1% Tween-20 and […] proteinase K for two minutes at room temperature.

[5] = test system: fgf8a; experiment: as above; assay type: in vivo; details: AMO injected embryos
Source text: as §1, §2

[6] = test system: DDB1; experiment: Elution of DDB1 from thalidomide-immobilized beads by test compound, Western blotting; details: Example 6; 293T extracts; elution with 1 mM compound

CRBN, sequence (Q96SW2 whole entry): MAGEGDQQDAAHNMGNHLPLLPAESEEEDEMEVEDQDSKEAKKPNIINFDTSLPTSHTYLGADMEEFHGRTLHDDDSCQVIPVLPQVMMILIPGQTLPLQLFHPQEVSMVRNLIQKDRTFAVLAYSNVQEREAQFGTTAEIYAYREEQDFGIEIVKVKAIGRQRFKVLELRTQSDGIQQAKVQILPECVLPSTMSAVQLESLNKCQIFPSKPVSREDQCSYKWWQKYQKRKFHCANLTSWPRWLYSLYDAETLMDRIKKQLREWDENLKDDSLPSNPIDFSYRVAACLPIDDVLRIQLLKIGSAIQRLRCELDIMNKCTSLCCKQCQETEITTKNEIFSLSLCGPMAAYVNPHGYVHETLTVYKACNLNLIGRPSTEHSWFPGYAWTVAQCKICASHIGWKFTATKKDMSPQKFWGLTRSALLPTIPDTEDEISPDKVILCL

Row | Molecule | proliferation of the multiple myeloma cell Kms12 [1] | CRBN eluted from thalidomide-immobilized beads by the compound [2] | bindability with CRBN [2] | fin and otic vesicle development [3] | reduction of the size of otic vesicles compared to wild type ([3]; AMO-injected embryos at 27 hpf) [%] | shh expression [4] | fgf8a expression [5] | size of otic vesicles, of the control size ([3]; knockdown embryos at 27 hpf) [%] | CRBN in the eluate fraction ([2]; Example 6, 293T extracts, elution with 1 mM compound) | DDB1 in the eluate fraction [6]
1 | CC(C)c1cccc(C(C)C)c1N1C(=O)c2ccc(O)cc2C1=O [5HPP-33] | potent suppressive action; also recorded: potently suppressed; also recorded: growth inhibition | very little CRBN was eluted; also recorded: not eluted | low bindability and low and extremely low bindability |  |  |  |  |  |  | 
2 | zcrbn-AMO: antisense morpholino oligo for zcrbn, 5′-AGAGCTGTAGCTGGTTCCCCATTTC-3′ (SEQ ID NO: 5) (all phosphorodiamidate morpholino (PMO)) |  |  |  | exhibited defects | 40 | no difference | reduced |  |  | 
3 | zcul4a AMO: antisense morpholino oligo for zcul4a, 5′-CTGGTGCTGAACATCTTCTGCCATC-3′ (SEQ ID NO: 6) (all phosphorodiamidate morpholino (PMO)) |  |  |  | caused defects |  | no difference | reduced | 40 |  | 
4 | O=C1NC(=O)c2ccccc21 [phthalimide] |  | very little CRBN was eluted; also recorded: not eluted | low bindability |  |  |  |  |  | not detected | not detected
